In US20160297830A1, “NOVEL COMPOUNDS USEFUL FOR THE TREATMENT OF BACTERIAL INFECTIOUS DISEASES” (GALAPAGOS NV, priority 2013, published 2016):
In brackets after ≈: the same amount, converted by molar mass. Like-named read-outs stand apart in the source and are kept apart here.

Legend:
S. aureus Sa1 ATCC 13709 = experiment: microbe, parasite or virus in culture; format: cell-based; conditions: Staphylococcus aureus
[1] = test system: S. aureus Sa26 ATCC 25923; experiment: Antibacterial activity assay (MIC), S. aureus Sa26; format: cell-based; conditions: Staphylococcus aureus
S. aureus Sa4 NCTC 6571 = experiment: Antibacterial activity assay (MIC), S. aureus Sa4; format: cell-based; conditions: Staphylococcus aureus
[2] = test system: S. aureus Sa2 clinical strain NCIMB 41953, MRSA; experiment: microbe, parasite or virus in culture; format: cell-based; conditions: Staphylococcus aureus, read-out: MIC Sa2
[3] = test system: H. influenza Hi3 ATCC 31517; experiment: organism not typed; format: cell-based; conditions: read-out: MIC Hi3
[4] = test system: H. influenza Hi10 clinical strain; experiment: organism not typed; format: cell-based; conditions: read-out: MIC Hi10
[5] = test system: H. influenza Hi47 clinical strain, Ampicillin Resistant; experiment: organism not typed; format: cell-based; conditions: read-out: MIC Hi47
[6] = test system: H. influenza Hi106 ATCC 51907; experiment: organism not typed; format: cell-based; conditions: read-out: MIC Hi106
E. coli Ec1 ATCC 25922 = experiment: Antibacterial activity assay (MIC), E. coli Ec1; format: cell-based; conditions: Escherichia coli
[7] = test system: E. coli Ec50 efflux pump KO; experiment: microbe, parasite or virus in culture; format: cell-based; conditions: Escherichia coli, read-out: MIC Ec50 efflux pump KO
[8] = test system: E. coli Ec113 efflux pump KO; experiment: microbe, parasite or virus in culture; format: cell-based; conditions: Escherichia coli, read-out: MIC Ec113 efflux pump KO
[9] = molecular target: DNA Polymerase IIIα (DnaE) from Staphylococcus aureus (Staphylococcus aureus, UniProt Q6GG04); experiment: biochemical
DNA III Polymerase E = DNA III Polymerase E (Escherichia coli, UniProt P10443); experiment: In vitro activity against DNA III Polymerase E, E. coli; format: biochemical
How it was run: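 Recombinant enzyme (0.47 μg/mL diluted stock) in 20 mM Tris pH7.5, 8 mM DTT, 10 mM MgOAc, 0.05% CHAPS met compound series from 100 μM top, 1/5 steps. Activated calf thymus DNA, dNTPs and [α-33P]-dTTP substrate were added, and incubation ran 120 min at 30° C. IC50 came from filter-captured incorporated radioactivity versus controls.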

[10] = test system: Methicillin Resistant S. aureus (MRSA); experiment: Neutropenic mouse thigh infection model; conditions: Thigh Sa, Study 1; 100 mg/kg IP BID; sample time 7 h PI
[11] = test system: Methicillin Resistant S. aureus Sa2 (MRSA); experiment: animal or person; format: in vivo; conditions: Study 1, 50 mg/kg PO BID, sample 24 h post infection, lung
[12] = ATCC25923, read-out: MIC Sa26 + 10% SH
[13] = ATCC25923, read-out: MIC Sa26 + 50% SH
[14] = DNA polymerase III, E. coli, read-out: IC50 semiquantitative scoring, E. coli
[15] = ATCC13709, S. aureus Sa1 ATCC 13709, sensitive strain, Mueller-Hinton Broth, 37° C., read-out: MIC Sa1
[16] = ATCC25923, read-out: MIC Sa26 + 10% SH, S. aureus Sa26 + 10% SH
[17] = ATCC25923, read-out: MIC Sa26 + 50% SH, S. aureus Sa26 + 50% SH
[18] = ATCC25923, S. aureus Sa26 ATCC 25923, sensitive strain, Mueller-Hinton Broth, 37° C., read-out: MIC Sa26
[19] = NCTC6571, S. aureus Sa4 NCTC 6571, sensitive strain, read-out: MIC Sa4
[20] = ATCC25922, E. coli Ec1 ATCC 25922, sensitive strain, read-out: MIC Ec1

Chain of DNA Polymerase IIIα (DnaE) from Staphylococcus aureus (Q6GG04 1-1022): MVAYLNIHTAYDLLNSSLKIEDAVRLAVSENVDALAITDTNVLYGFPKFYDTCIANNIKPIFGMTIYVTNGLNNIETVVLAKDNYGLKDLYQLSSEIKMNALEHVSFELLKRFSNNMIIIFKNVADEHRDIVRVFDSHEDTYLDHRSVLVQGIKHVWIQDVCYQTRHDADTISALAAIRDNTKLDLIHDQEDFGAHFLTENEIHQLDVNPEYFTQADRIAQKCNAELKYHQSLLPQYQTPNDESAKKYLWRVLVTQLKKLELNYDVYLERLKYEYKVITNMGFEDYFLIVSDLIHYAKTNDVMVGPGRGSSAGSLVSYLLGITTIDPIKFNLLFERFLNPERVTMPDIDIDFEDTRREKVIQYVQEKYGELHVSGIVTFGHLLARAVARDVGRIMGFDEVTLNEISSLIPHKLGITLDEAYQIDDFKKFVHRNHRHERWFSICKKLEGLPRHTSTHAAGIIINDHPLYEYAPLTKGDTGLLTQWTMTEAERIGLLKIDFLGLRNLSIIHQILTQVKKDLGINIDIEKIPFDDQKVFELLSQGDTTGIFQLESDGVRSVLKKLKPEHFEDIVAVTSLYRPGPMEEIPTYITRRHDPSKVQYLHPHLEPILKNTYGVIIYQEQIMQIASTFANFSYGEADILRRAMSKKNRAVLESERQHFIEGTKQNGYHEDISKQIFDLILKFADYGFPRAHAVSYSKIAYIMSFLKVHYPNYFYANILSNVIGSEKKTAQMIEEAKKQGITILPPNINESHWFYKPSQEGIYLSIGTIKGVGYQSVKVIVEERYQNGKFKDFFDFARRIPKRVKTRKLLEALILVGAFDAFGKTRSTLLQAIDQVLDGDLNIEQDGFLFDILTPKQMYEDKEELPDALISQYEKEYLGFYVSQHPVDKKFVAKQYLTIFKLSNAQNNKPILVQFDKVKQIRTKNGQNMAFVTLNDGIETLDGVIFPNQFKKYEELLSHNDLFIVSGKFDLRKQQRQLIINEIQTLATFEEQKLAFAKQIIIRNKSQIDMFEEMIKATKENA
Chain of DNA III Polymerase E (P10443 whole entry): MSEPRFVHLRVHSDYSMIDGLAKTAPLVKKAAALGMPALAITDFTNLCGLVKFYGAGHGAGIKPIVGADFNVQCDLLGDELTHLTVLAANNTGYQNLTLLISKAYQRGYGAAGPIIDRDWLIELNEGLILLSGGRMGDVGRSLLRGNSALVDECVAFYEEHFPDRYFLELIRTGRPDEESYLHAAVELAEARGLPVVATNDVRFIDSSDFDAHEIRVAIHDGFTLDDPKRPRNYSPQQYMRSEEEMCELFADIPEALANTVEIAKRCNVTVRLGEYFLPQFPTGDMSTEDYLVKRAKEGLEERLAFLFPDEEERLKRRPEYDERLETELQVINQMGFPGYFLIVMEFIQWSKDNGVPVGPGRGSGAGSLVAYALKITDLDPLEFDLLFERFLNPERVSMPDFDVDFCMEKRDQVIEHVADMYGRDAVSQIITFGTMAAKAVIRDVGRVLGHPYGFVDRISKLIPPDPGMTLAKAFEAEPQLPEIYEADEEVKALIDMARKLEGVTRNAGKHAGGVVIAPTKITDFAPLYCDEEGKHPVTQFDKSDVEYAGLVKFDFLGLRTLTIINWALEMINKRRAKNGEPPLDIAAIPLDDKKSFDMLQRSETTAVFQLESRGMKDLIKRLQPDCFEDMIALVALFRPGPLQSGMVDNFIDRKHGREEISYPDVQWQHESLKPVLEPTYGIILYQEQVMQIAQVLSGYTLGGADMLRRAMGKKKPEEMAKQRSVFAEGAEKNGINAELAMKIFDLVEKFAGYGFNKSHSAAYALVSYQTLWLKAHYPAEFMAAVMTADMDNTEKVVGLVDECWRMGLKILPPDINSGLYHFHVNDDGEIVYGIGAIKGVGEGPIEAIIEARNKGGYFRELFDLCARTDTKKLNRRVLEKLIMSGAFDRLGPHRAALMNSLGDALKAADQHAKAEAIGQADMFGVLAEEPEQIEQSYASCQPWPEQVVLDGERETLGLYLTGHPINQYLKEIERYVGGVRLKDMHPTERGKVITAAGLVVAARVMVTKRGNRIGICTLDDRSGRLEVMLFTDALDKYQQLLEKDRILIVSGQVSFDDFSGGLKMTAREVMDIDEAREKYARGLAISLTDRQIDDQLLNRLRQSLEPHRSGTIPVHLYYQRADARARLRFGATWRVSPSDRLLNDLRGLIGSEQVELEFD

| Compound | MIC (S. aureus Sa1 ATCC 13709; ATCC13709, read-out: MIC Sa1) [µg/mL] | MIC ([1]; ATCC25923, read-out: MIC Sa26) [µg/mL] | MIC [1, 12] [µg/mL] | MIC [1, 13] [µg/mL] | MIC (S. aureus Sa4 NCTC 6571; NCTC6571, read-out: MIC Sa4) [µg/mL] | MIC [2] [µg/mL] | MIC [3] [µg/mL] | MIC [4] [µg/mL] | MIC [5] [µg/mL] | MIC [6] [µg/mL] | MIC (E. coli Ec1 ATCC 25922; ATCC25922, read-out: MIC Ec1) [µg/mL] | MIC [7] [µg/mL] | MIC [8] [µg/mL] | IC50 [9] [nM] | IC50 (DNA III Polymerase E; [14]) [nM] | MIC (S. aureus Sa1 ATCC 13709; [15]) [µg/mL] | MIC [1, 16] [µg/mL] | MIC [1, 17] [µg/mL] | MIC [1, 18] [µg/mL] | MIC (S. aureus Sa4 NCTC 6571; [19]) [µg/mL] | further results |
| --- | --- | --- | --- | --- | --- | --- | --- | --- | --- | --- | --- | --- | --- | --- | --- | --- | --- | --- | --- | --- | --- |
| COC[C@H]1[C@@H](O)[C@@H]2O[C@@]34/C(C)=C/[C@@H](C)[C@@H]([C@H](O)COC)OC(=O)[C@H](COC)[C@H]3C=C[C@@H]2[C@H]4[C@@H]1O [Branimycin, reference compound] | 64 (≈ 133 µM) | 64 (≈ 133 µM) | 64 | 64 | 64 (≈ 133 µM) | 64 (≈ 133 µM) | > 64 | > 64 | > 64 | > 64 | > 64 | 8 (≈ 16.6 µM) | 1 (≈ 2.07 µM) | 2.07 to 2070 | 2070 to 20700 |  |  |  |  |  | Active [10]: N; Log reduction vs. untreated [10]: −0.3 |
| COC[C@@H]1[C@@H](O)[C@@H]2[C@H]3C=C[C@@H]4[C@@H](COC)C(=O)OC[C@H](C)/C=C(\C)[C@@]24O[C@H]3[C@@H]1OC(=O)c1ccc[nH]1 [Compound 22, 17,18-Dinor-8-O-1H-pyrrole-2′-carbonybranimycin] |  |  |  |  |  | 4 (≈ 7.97 µM) | > 64 | > 64 | > 64 | > 64 |  | > 64 | 8 (≈ 15.9 µM) | 1.99 to 1990 |  | 4 (≈ 7.97 µM) | 4 | 8 | 4 (≈ 7.97 µM) | 2 (≈ 3.99 µM) | MIC (E. coli Ec1 ATCC 25922; [20]): > 64 µg/mL; IC50 (DNA III Polymerase E): > 19900 nM |
| COC[C@@H]1[C@@H](O)[C@@H]2[C@H]3C=C[C@@H]4[C@@H](COC)C(=O)O[C@H](C(C)(O)COC)[C@H](C)/C=C(\C)[C@@]24O[C@H]3[C@@H]1OC(=O)c1ccc[nH]1 (stereo partly shown) [Compound 24, 17-Methyl-8-O-1H-pyrrole-2′-carbonylbranimycin] |  |  |  |  |  | 2 (≈ 3.39 µM) | > 64 | > 64 | > 64 | > 64 |  | 1 (≈ 1.7 µM) | 2 (≈ 3.39 µM) | 1.7 to 1700 |  | 4 (≈ 6.78 µM) | 4 | 4 | 4 (≈ 6.78 µM) | 2 (≈ 3.39 µM) | MIC (E. coli Ec1 ATCC 25922; [20]): > 64 µg/mL; IC50 (DNA III Polymerase E): > 17000 nM |
| COCC(=NO)[C@H]1OC(=O)[C@H](COC)[C@H]2C=C[C@H]3[C@H]4O[C@]2(/C(C)=C/[C@H]1C)[C@@H]3[C@H](O)[C@@H](COC)[C@H]4OC(=O)c1ccc[nH]1 [Compound 25, 18-Deoxy-18-oximino-8-O-1H-pyrrole-2′-carbonylbranimycin] |  |  |  |  |  | ≤ 0.06 | > 64 | > 64 | > 64 | > 64 |  | 0.5 (≈ 0.849 µM) | 0.25 (≈ 0.425 µM) | 1.7 to 1700 | 1700 to 17000 | 0.25 (≈ 0.425 µM) | 0.5 | 1 | 0.5 (≈ 0.849 µM) | 0.25 (≈ 0.425 µM) | MIC (E. coli Ec1 ATCC 25922; [20]): > 64 µg/mL; log reduction at 50 mg/kg ([11]; Staphylococcus aureus, MRSA, in Mus musculus, read-out: Log reduction vs. untreated): 0.36; Active [11]: N |
| COC[C@@H]1[C@@H](O)[C@@H]2[C@H]3C=C[C@@H]4[C@@H](COC)C(=O)O[C@H]([C@H](O)COC)[C@H](C)/C=C(\C)[C@@]24O[C@H]3[C@@H]1OC(=O)c1cc(C#N)c[nH]1 [Compound 26, 8-O-4-Cyano-1H-pyrrole-2′-carbonylbranimycin] | 64 (≈ 107 µM) | 128 (≈ 213 µM) | 128 | 64 | 64 (≈ 107 µM) | 64 (≈ 107 µM) | > 128 | > 128 | > 128 | > 128 | > 128 | 2 (≈ 3.33 µM) | 4 (≈ 6.66 µM) | 1.66 to 1660 | 1660 to 16600 |  |  |  |  |  |  |
| COCC(=NO)[C@H]1OC(=O)[C@H](COC)[C@H]2C=C[C@H]3[C@H]4O[C@]2(/C(C)=C/[C@H]1C)[C@@H]3[C@H](O)[C@@H](COC)[C@H]4OC(=O)c1cc(F)c[nH]1 [Compound 40, 18-Deoxy-18-oximino-8-O-4-Fluoro-1H-pyrrole-2′-carbonylbranimycin] |  |  |  |  |  | 0.25 (≈ 0.412 µM) | > 64 | 64 (≈ 105 µM) | > 64 | > 64 |  | 16 (≈ 26.4 µM) | 0.25 (≈ 0.412 µM) | 1.65 to 1650 | 1.65 to 1650 | 0.25 (≈ 0.412 µM) | 1 | 1 | 1 (≈ 1.65 µM) | 0.12 (≈ 0.198 µM) | MIC (E. coli Ec1 ATCC 25922; [20]): > 64 µg/mL |
| COC[C@@H]1[C@@H](O)[C@@H]2[C@H]3C=C[C@@H]4C[C@H](O)C(=O)O[C@H]([C@H](O)COC)[C@H](C)/C=C(\C)[C@@]24O[C@H]3[C@@H]1OC(=O)c1ccc[nH]1 [Nargenicin B1, reference compound] | 1 (≈ 1.78 µM) | 2 (≈ 3.56 µM) | 2 | 1 | 0.5 (≈ 0.89 µM) | 0.5 (≈ 0.89 µM) | > 64 | > 64 | > 64 | > 64 | > 64 | 16 (≈ 28.5 µM) | 2 (≈ 3.56 µM) | 1.78 to 1780 | > 17800 |  |  |  |  |  |  |
| CO[C@H]1C[C@H]2C=C[C@H]3[C@H]4O[C@]2(/C(C)=C/[C@@H](C)[C@@H]([C@@H](C)O)OC1=O)[C@@H]3[C@H](O)[C@@H](C)[C@H]4O [Nodusmicin, reference compound] | > 64 | > 64 | > 64 | > 64 | > 64 | > 64 | 64 (≈ 151 µM) | 64 (≈ 151 µM) | 32 (≈ 75.7 µM) | 64 (≈ 151 µM) | > 64 | 1 (≈ 2.37 µM) | 0.25 (≈ 0.592 µM) | 2.37 to 2370 | 2370 to 23700 |  |  |  |  |  |  |
